These results are taken from article PMC9103184, “Kunitz-Type Peptides from Sea Anemones Protect Neuronal Cells against Parkinson’s Disease Inductors via Inhibition of ROS Production and ATP-Induced P2X7 Receptor Activation” (International Journal of Molecular Sciences, 2022).

Assay [1] addresses T1, trypsin (Bos taurus, UniProt P00760).
T1 sequence (P00760 24-246): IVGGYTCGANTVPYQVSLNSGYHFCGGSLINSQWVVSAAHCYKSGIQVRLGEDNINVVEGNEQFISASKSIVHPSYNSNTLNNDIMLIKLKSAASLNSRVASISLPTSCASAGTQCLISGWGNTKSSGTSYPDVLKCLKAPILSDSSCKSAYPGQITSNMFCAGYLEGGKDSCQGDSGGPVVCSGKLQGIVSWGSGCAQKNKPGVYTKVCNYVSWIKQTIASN
Nature of the assay: Residual trypsin-inhibitory activity after heating. The following applies: all temperature ranges up to 100 °C; 7 μM peptide, 1.2 mM BAPNA, 37 °C, 410 nm, three parallel experiments. Type of assay: biochemical. On the procedure: Figure 6 The effects of temperature on the trypsin-inhibitory activity levels of peptides. Peptides were incubated at the temperatures for 30 min and their residual activities were measured.
The temperature influence on the activity levels of peptides was assessed by measuring their residual inhibitory activity levels. After preincubation at temperatures ranging from 25 to 100 °C for 25 min, the peptide solutions were added to trypsin solution and the reaction mixtures were incubated for 10 min at 37 °C, then 1.2 mM BAPNA was added, followed by incubation at 37 °C for 30 min. The final concentration of the peptides was 7 μM. Substrate hydrolysis was measured at 410 nm. The residual activity was calculated based on the results of three parallel experiments according to the following equation [60]:% = (1 − residual enzyme activity/enzyme activity without inhibitor) × 100

Assay [2] deals with Neuro-2a cells. Description: Paraquat-induced toxicity, cell viability (MTT). The class given is cell-based, murine. The settings on record: peptide up to 10 μM, 600 μM paraquat, 24 h. On the procedure:
The murine neuroblastoma cell line Neuro-2a was purchased from ATCC (CCL-131, American Type Culture Collection, Manassas, VA, USA). Cells were cultured in Dulbecco’s modified Eagle’s medium (DMEM) (Biolot, St. Petersburg, Russia) containing 10% fetal bovine serum (Biolot, St. Petersburg, Russia) and 1% penicillin/streptomycin (Biolot, St. Petersburg, Russia) according to ATCC’s instruction. Cells were incubated at 37 °C in a humidified atmosphere containing 5% CO2 (v/v). Before the experiments, Neuro-2a cells at a concentration of 1 × 10^4 cells/well were dispensed into 96-well plates and incubated for 24 h in a humidified atmosphere containing 5% CO2 to allow cell attachment.
Then, 20 μL of substance solution was loaded into the cells and incubated for 24 h followed by replacement of the medium with tested substances and 100 μL of fresh medium. Then, 10 μL of MTT (3-(4,5-dimethylthiazol-2-yl)-2,5- diphenyltetrazolium bromide) (Sigma-Aldrich, St. Louis, MO, USA) stock solution (5 mg/mL) was added to each well and the microplate was incubated for 4 h. […] The absorbance of the converted dye formazan was measured using a Multiskan FC microplate photometer (Thermo Scientific, Waltham, MA, USA) at a wavelength of 570 nm. […] Cytotoxic activity was expressed as the percentage of cell viability. […]

Assay [3] has as its system Neuro-2a cells. Description: Paraquat-induced ROS formation (H2DCF-DA). The following applies: peptide 0.01 μM, 600 μM paraquat 3 h, means ± SE. The class given is cell-based, murine. On the procedure:
(§1) Figure 8 Effects of the peptides on intracellular ROS and NO formation. The effects of the peptides on ROS formation into Neuro-2a cells treated by 600 μM paraquat (a) and 10 μM rotenone (b). The effects of peptides on NO formation into the cells treated by 600 μM paraquat (c) and 10 μM rotenone (d). Cells were incubated with peptides for 1 h at 37 °C, then 3 or 1 h with paraquat or rotenone, respectively. The data are shown as the means ± SE; *—p < 0.05, **—p < 0.01, #—p < 0.05 when comparing concentrations of the same peptide.
(§2) Neuro-2a cells were incubated with peptides at concentrations of 0.01, 0.1, and 1 µM for 1 h. Then, paraquat (600 μM) or rotenone (10 µM) was added to each well and cells were incubated for 3 or 1 h, respectively. To study the ROS formation, the 2,7-dichlorodihydrofluorescein diacetate (H2DCF-DA) assay was performed according to the manufacturer’s instructions (Molecular Probes, Eugene, OR, USA). […]
(§3) To determine the NO production, a 4-amino-5-methylamino-2′,7′-difluorofluorescein diacetate (DAF-FM) assay was performed according to the manufacturer’s instructions (Invitrogen, Carlsbad, CA, USA). […] In both cases, the fluorescence intensity was measured using a PHERAstar FS high-speed plate reader (BMG Labtech, Ortenberg, Germany) at λex = 485 nm and λem = 518 nm. […]

Assay [4] deals with Neuro-2a cells. Description: Rotenone-induced ROS formation (H2DCF-DA). Type of assay: cell-based, murine. The following applies: peptide 0.01 μM, 10 μM rotenone 1 h, means ± SE. The procedure:
as §1, §2, §3

Assay [5] deals with Neuro-2a cells. The following applies: cited from earlier work. The procedure:
The peptides were tested for cell viability in in vitro 6-OHDA-, rotenone-, paraquat-, and MPP^+-induced Parkinson’s disease models. All peptides were non-toxic on Neuro-2a cells at a concentrations up to 10 µM (Figure S2). The viability of neurotoxin-treated cells was about 65% versus control (Figure 7).

As for “HCIQ2c1: recombinant Kunitz-type peptide from Heteractis crispa, UniProtKB ID A0A6B7FBD3 (IQGNICSEPKKVGRCRGSFPRFYFDSETGKCTPFIYGGCGGNGNNFETLHACRAICRA; UniProt A0A6B7FBD3 28-85, looked up)”, the “trypsin-inhibitory activity after heating” value in assay [1] was “inhibit trypsin completely at all temperature ranges”. Moreover, in assay [2], the “influence on viability of paraquat-treated cells” value is “did not influence the viability”. In addition, the “decrease in paraquat-induced ROS level” value in assay [3] was found to be 30.7 ± 1.8%. Besides, the “decrease in rotenone-induced ROS level” value in assay [4] is reported as 22.0 ± 7.3%. Further, in assay [5], the “increase in viability of 6-OHDA-treated cells” value is 47% and the “protection against 6-OHDA compared with HCIQ4c7” value is on record as “stronger neuroblastoma cell viability against 6-OHDA than HCIQ4c7”.
